Here are results for one molecule from publication PMC3314654, “Characterization of Rhodamine-123 as a Tracer Dye for Use In In vitro Drug Transport Assays” (PLoS ONE, 2012).

The structures appear in SMILES notation.

One data set addresses T1, OATP1A2 (Homo sapiens, UniProt P46721).
T1 construct: gene SLCO1A2
T1 sequence (P46721 1-670): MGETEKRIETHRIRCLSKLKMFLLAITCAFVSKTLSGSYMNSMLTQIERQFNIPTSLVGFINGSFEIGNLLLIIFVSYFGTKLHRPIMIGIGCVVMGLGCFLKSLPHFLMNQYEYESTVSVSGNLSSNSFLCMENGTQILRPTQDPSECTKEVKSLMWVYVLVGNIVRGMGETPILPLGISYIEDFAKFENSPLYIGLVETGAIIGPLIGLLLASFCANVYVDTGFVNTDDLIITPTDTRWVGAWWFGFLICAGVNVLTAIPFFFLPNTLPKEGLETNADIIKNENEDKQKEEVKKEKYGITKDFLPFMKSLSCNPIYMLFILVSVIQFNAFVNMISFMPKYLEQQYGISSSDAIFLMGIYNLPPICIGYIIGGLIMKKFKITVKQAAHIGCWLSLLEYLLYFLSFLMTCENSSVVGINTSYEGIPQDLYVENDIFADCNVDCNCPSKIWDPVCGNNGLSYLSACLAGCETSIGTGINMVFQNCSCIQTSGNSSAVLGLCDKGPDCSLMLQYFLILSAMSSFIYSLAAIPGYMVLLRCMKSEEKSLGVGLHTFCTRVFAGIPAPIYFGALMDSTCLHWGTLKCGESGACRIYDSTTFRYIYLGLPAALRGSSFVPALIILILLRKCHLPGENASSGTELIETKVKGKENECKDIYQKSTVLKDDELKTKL
As to the kind of experiment: R123 uptake in BacMam-transduced HEK293-MSRII cells (Km). In kind it is cell-based.

The next data set concerns the target ABCB1 (MDR1) (Homo sapiens, UniProt P08183). Kind of data set: R123 efflux from MDCKII-ABCB1 versus naive MDCKII cells (Km). In kind it is cell-based. As to conditions: mdck.

Chain of ABCB1 (MDR1) (P08183 whole entry): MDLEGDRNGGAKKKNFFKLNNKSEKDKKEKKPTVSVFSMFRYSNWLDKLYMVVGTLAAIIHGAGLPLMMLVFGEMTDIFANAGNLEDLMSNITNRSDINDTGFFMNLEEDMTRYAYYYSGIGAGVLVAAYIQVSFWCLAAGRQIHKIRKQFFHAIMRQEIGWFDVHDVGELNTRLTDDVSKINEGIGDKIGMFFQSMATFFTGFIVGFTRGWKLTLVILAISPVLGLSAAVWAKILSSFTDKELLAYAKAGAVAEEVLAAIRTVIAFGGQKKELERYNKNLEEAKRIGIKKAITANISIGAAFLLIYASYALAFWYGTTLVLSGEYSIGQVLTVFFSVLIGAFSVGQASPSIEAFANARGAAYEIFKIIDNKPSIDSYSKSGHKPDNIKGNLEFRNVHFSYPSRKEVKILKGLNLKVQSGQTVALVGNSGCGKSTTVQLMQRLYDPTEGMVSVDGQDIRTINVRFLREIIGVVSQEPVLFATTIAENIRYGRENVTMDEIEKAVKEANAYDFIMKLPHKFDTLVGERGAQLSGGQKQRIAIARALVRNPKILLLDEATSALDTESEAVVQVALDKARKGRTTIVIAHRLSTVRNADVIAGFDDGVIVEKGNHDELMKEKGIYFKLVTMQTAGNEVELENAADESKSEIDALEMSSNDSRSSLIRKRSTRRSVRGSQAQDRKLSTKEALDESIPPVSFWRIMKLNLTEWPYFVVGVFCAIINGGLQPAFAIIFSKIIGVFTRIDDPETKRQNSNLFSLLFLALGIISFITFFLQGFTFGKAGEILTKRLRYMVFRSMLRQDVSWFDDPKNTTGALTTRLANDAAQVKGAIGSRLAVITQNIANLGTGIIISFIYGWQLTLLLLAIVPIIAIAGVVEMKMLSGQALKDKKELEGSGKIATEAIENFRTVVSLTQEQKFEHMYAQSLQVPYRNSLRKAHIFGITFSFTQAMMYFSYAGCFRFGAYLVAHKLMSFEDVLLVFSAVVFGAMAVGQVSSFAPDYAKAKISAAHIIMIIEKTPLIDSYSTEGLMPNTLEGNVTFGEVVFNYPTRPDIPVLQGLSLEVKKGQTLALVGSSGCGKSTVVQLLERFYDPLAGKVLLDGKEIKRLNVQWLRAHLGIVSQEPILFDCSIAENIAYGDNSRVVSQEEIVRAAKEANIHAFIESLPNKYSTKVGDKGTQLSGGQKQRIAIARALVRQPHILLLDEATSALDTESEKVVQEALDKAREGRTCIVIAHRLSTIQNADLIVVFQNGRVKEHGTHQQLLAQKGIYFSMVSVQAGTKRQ

Consider `COC(=O)c1ccccc1-c1c2ccc(=N)cc-2oc2cc(N)ccc12` [R123, Rhodamine 123], for which the Km was found to be 0.3 ± 0.1 µM on OATP1A2 and 17.5 ± 2.8 µM at ABCB1 (MDR1).

Broadly, the Km is the substrate concentration at which the rate is half of its maximum.
